From patent USRE30560E, “Oxazolidinedione derivatives of Vinca alkaloids” (Eli Lilly and Company, priority 1979, dated 1981)

Columns and labels:
[1] = test system: Gardner lymphosarcoma (GLS); experiment: Percent inhibition of transplanted Gardner lymphosarcoma (GLS) in mice; type: in vivo; conditions: for inhibitory activity orally / oral activity: oral; for inhibitory activity orally: 6-7 mg./kg. (3"-methyl) and 3-6 mg./kg. (3"-(β-chloroethyl)); for oral activity: 2 (VLB) and 2-4.5 (vincristine) mg./kg.
Protocol: (§1) The following table--Table 1--gives the results of several experiments in which mice bearing transplanted tumors were treated successfully with a compound of this invention. In the table, column 1 gives the name of the compound; column 2, the transplanted tumor; column 3, the dose level or dose level range and the number of days the dosage was administered; column 4, the route of administration, and column 5, the percent inhibition of tumor growth or percent prolongation of survival time, e.g., B16 and P388. (ROS is an abbreviation for Ridgeway osteogenic sarcoma; GLS for Gardner lymphosarcoma; P1534(J) and P388 are leukemias; CA755 is an adenocarcinoma; and B16 is a melamoma).

transplanted tumors [2] = conditions: C-3 amides; cited from earlier work
[3] = test system: Ridgeway osteogenic sarcoma (ROS); experiment: Percent inhibition of transplanted Ridgeway osteogenic sarcoma (ROS) in mice; type: in vivo; conditions: for inhibitory activity orally / oral activity: oral; for inhibitory activity orally: 6-7 mg./kg. (3"-methyl) and 3-6 mg./kg. (3"-(β-chloroethyl)); for oral activity: 2 (VLB) and 2-4.5 (vincristine) mg./kg.
Protocol: as §1

P1534(J) = experiment: Percent inhibition, mice bearing transplanted P1534(J) leukemia; type: in vivo
Protocol: as §1

CA755 = experiment: Percent inhibition of transplanted CA755 adenocarcinoma in mice; type: in vivo; conditions: for inhibitory activity orally / oral activity: oral; for inhibitory activity orally: 6-7 mg./kg. (3"-methyl) and 3-6 mg./kg. (3"-(β-chloroethyl)); for oral activity: 2 (VLB) and 2-4.5 (vincristine) mg./kg.
Protocol: as §1

B16 = experiment: Percent prolongation of survival time, mice bearing transplanted B16 melanoma; type: in vivo
Protocol: as §1

transplanted tumors [4] = experiment: Activity against transplanted tumors in mice (general statements); type: in vivo; conditions: for activity by the oral route: same tumors in experimental animals; for dose level showing comparable tumor inhibition or prolongation of life: parenteral, intraperitoneal route
Protocol: as §1

leukemias = conditions: humans; cited from earlier work
[5] = Toxicity on oral administration in tumor-bearing animals; type: in vivo, experimental animals; conditions: above 2 (VLB) and 2-4.5 (vincristine) mg./kg.
[6] = humans; compared with vincristine; cited from earlier work

CC[C@]1(O)C[C@@H]2CN(CCc3c([nH]c4ccccc34)[C@@](C(=O)OC)(c3cc4c(cc3OC)N(C=O)[C@H]3[C@]5(OC(=O)N(C)C5=O)[C@H](OC(C)=O)[C@]5(CC)C=CCN6CC[C@]43[C@@H]65)C2)C1 [Vincristine 3"-methyl-3-spiro-5"-oxazolidine-2",4"-dione]
Percent Inhibition ([1]; 1.0 mg./kg. × 7 days, IP): 61%

CC[C@]1(O)C[C@@H]2CN(CCc3c([nH]c4ccccc34)[C@@](C(=O)OC)(c3cc4c(cc3OC)N(C)[C@H]3[C@]5(OC(=O)N(C)C5=O)[C@H](OC(=O)NC)[C@]5(CC)C=CCN6CC[C@]43[C@@H]65)C2)C1 [4-desacetyl VLB 3"-methyl-3-spiro-5"-oxazolidine-2",4"-dione-4-(N-methyl)carbamate]
Percent Inhibition ([1]; 0.1-2.5 mg./kg. × 7-9 days, IP): 40-100%

CC[C@]1(O)C[C@@H]2CN(CCc3c([nH]c4ccccc34)[C@@](C(=O)OC)(c3cc4c(cc3OC)N(C)[C@H]3[C@@](O)(C(=O)NCCS)[C@H](O)[C@]5(CC)C=CCN6CC[C@]43[C@@H]65)C2)C1 [C-3 N-(β-mercaptoethyl)carboxamide of 4-desacetyl VLB]
anti-tumor activity in mice (transplanted tumors [2]): highly effective anti-tumor agent in mice

C=CCN1C(=O)O[C@]2(C1=O)[C@H](OC(C)=O)[C@]1(CC)C=CCN3CC[C@@]4(c5cc([C@@]6(C(=O)OC)C[C@H]7CN(CCc8c6[nH]c6ccccc86)C[C@](O)(CC)C7)c(OC)cc5N(C)[C@@H]24)[C@@H]31 [VLB 3"-allyl-3-spiro-5"-oxazolidine-2",4"-dione]
Percent Inhibition ([1]; 2.5 mg./kg. × 7 days, IP): 35%

CC[C@]1(O)C[C@@H]2CN(CCc3c([nH]c4ccccc34)[C@@](C(=O)OC)(c3cc4c(cc3OC)N(C)[C@H]3[C@]5(OC(=O)N(C)C5=O)[C@H](O)[C@]5(CC)C=CCN6CC[C@]43[C@@H]65)C2)C1 [4-desacetyl VLB 3"-methyl-3-spiro-5"-oxazolidone-2",4"-dione]
Percent Inhibition ([1]; 2.5 mg./kg. × 7 days, IP): 27%

CC[C@]1(O)C[C@@H]2CN(CCc3c([nH]c4ccccc34)[C@@](C(=O)OC)(c3cc4c(cc3OC)N(C)[C@H]3[C@]5(OC(=O)N(CCCl)C5=O)[C@H](OC(C)=O)[C@]5(CC)C=CCN6CC[C@]43[C@@H]65)C2)C1 [VLB 3"-(β-chloroethyl)-3-spiro-5"-oxazolidine-2",4"-dione]
Percent Inhibition ([1]; 0.65 mg./kg. × 10 days, IP): 47% | Percent Inhibition ([1]; 0.5-0.6 mg./kg. × 9-10 days, IP): 50-74% | Percent Inhibition ([1]; 3-4 mg./kg. × 9 days, PO): 92-100% | inhibitory activity orally [1]: 100% | inhibitory activity orally [3]: 100% | Percent Inhibition or Prolongation of Survival Time (P1534(J); 3.5 mg./kg. × 8 days, PO): 100% | Percent Inhibition or Prolongation of Survival Time (P1534(J); 0.4-0.6 mg./kg. × 10 days, IP): 61-86% | Percent Inhibition (CA755; 0.75-1.0 mg./kg. × 10 days, IP): 53% | Percent Inhibition (CA755; 3-5 mg./kg. × 9-10 days, PO): 59-92% | inhibitory activity orally (CA755): 100% | Percent Prolongation of Survival Time (B16; 0.4-0.6 mg./kg. × 10 days, IP): 25-178% | indefinite survivors (survived for 60 days till end of trial) (B16; 0.4-0.6 mg./kg. × 10 days, IP): 5

CC[C@]1(O)C[C@H]2CN(CCc3c([nH]c4ccccc34)[C@@](C(=O)OC)(c3cc4c(cc3OC)N(C=O)[C@H]3[C@@](O)(C(=O)OC)[C@H](OC(C)=O)[C@]5(CC)C=CCN6CC[C@]43[C@@H]65)C2)C1 [vincristine, leurocristine]
activity by the oral route (transplanted tumors [4]): do not show this degree of oral activity | dose level showing comparable tumor inhibition or prolongation of life (transplanted tumors [4]): 0.2 to 0.25 mg/kg | oral activity [1]: only marginally active, if at all | activity in the treatment of leukemias (leukemias): most active and useful agent in the treatment of leukemias | oral activity [3]: only marginally active, if at all | toxicity at higher levels [5]: usually are toxic at higher levels | oral activity (CA755): only marginally active, if at all

CC[C@]1(O)C[C@@H]2CN(CCc3c([nH]c4ccccc34)[C@@](C(=O)OC)(c3cc4c(cc3OC)N(C)[C@H]3[C@]5(OC(=O)N(C)C5=O)[C@H](OC(C)=O)[C@]5(CC)C=CCN6CC[C@]43[C@@H]65)C2)C1 [VLB 3"-methyl-3-spiro-5"-oxazolidine-2",4"-dione]
Percent Inhibition ([1]; 0.6 mg./kg. × 7 days, IP): 100% | Percent Inhibition ([1]; 1.25 mg./kg. × 9 days, IP): 100% | Percent Inhibition ([1]; 3-4 mg./kg. × 10 days, PO): 100% | Percent Inhibition ([1]; 3-5 mg./kg. × 10 days, PO): 37-56% | inhibitory activity orally [1]: 100% | Percent Inhibition ([3]; 5-7 mg./kg. × 10 days, PO): 38-59% | inhibitory activity orally [3]: 100% | Percent Inhibition or Prolongation of Survival Time (P1534(J); 3-4 mg./kg. × 8 days, PO): 100% | Percent Inhibition or Prolongation of Survival Time (P1534(J); .5-.6 mg./kg. × 10 days, IP): 100% | Percent Inhibition (CA755; 0.5-1.0 mg./kg. × 10 days, IP): 45-100% | inhibitory activity orally (CA755): 100% | Percent Prolongation of Survival Time (B16; 4.5 mg./kg. × 10 days, IP (so in the source)): 49-91% | indefinite survivors (survived for 60 days till end of trial) (B16; 0.5-0.6 mg./kg. × 10 days, IP): 3

CC[C@]1(O)C[C@@H]2CN(CCc3c([nH]c4ccccc34)[C@@](C(=O)OC)(c3cc4c(cc3OC)N(C)[C@H]3[C@@](O)(C(=O)OC)[C@H](OC(C)=O)[C@]5(CC)C=CCN6CC[C@]43[C@@H]65)C2)C1 [VLB, vincaleukoblastine, reference compound]
activity by the oral route (transplanted tumors [4]): do not show this degree of oral activity | dose level showing comparable tumor inhibition or prolongation of life (transplanted tumors [4]): 0.4 to 0.45 mg/kg | oral activity [1]: only marginally active, if at all | oral activity [3]: only marginally active, if at all | toxicity at higher levels [5]: usually are toxic at higher levels | oral activity (CA755): only marginally active, if at all

CC[C@]1(O)C[C@@H]2CN(CCc3c([nH]c4ccccc34)[C@@](C(=O)OC)(c3cc4c(cc3OC)N(C)[C@H]3[C@@](O)(C(N)=O)[C@H](O)[C@]5(CC)C=CCN6CC[C@]43[C@@H]65)C2)C1 [vindesine, 4-desacetyl VLB C-3 carboxamide]
neurotoxicity [6]: less neurotoxicity than does vincristine | activity in the treatment of leukemias (leukemias): active in certain leukemias
